Measured values published in patent US9694050B2, “THY1 (CD90) as a novel therapy to control adipose tissue accumulation” (University of Rochester, priority 2012, dated 2017).

Experiments:
[1] = tested on: human pre-adipocyte fibroblasts; test: Adipogenesis of human pre-adipocyte fibroblasts in adipogenic medium (Thy1 siRNA, SU6656); format: cell-based
Procedure: 3T3-L1 cells or primary fibroblasts were cultured to confluence before addition of the adipogenic medium. Cells were treated with an adipogenic medium containing 0.5 mM 3-isobutyl-1-methylxanthine, 0.25 μM dexamethasone, and 1 μg/ml insulin (all three from Sigma Aldrich, St. Louis, Mo.), 2 μM rosiglitazone (Cayman) for two days. After two days medium was replaced with dexamethasone, insulin and rosiglitazone for another 5-8 days. Media was replaced every 2 days through the duration of the experiment. After differentiation cells were analyzed for lipid accumulation and adipogenesis by Oil-red-O (Sigma Aldrich, St. Louis, Mo.) staining and AdipoRed (Cayman) staining as described previously. Lehmann et al., “Novel Anti-adipogenic Activity Produced by Human Fibroblasts,” Am J Physiol Cell Physiol 299(3):C672-81 (2010), which is hereby incorporated by reference in its entirety.
5-8×10^4 or 1×10^5 cells were seeded into 24 well or 6 well cell culture plates (Corning) and subsequently were transiently transfected with 50-200 nM of siRNA (Ambion) using Lipofectamine 2000 (Invitrogen) as the transfection reagent and following the manufacture's protocol. The cells were incubated with siRNA specific for Thy1 specific or a corresponding non-specific control siRNA for 3-4 days before the cells were subjected to adipogenic differentiation experiments as described above. At the start of the adipogenic differentiation experiment, the cells were again transiently transfected with 100 nM Thy1-specific or control siRNA.
Thy1 specific or control siRNA was introduced into human pre-adipocyte fibroblasts using Lipofectamine 2000. Fibroblasts were then treated with an adipogenic medium and adipogenesis was measured by visual inspection of lipid droplets, FABP4 expression and lipid accumulation. Total Thy1 protein expression and Thy1 surface expression were analyzed by western blot and flow cytometry, respectively. […] Cell images were captured to show the presence of lipid droplets in fibroblasts treated with adipogenic medium, and are shown in FIG. 12B. […]

Thy1 [2] = test: Thy1 expression in hMSCs treated with obesogens (qPCR, flow cytometry); format: cell-based, human
Procedure: In particular, hMSCs were induced to adipocytes with a rosiglitazone cocktail (adipogenic) or cocktail containing the putative obesogens BPA (1 μM), TBBPA (5 μM), or TBT (100 nM). […] The obesogen doses selected are based on literature and represent concentrations proposed to be found in human tissues. Roos et al., “Circulating Levels of Persistent Organic Pollutants in Relation to Visceral and Subcutaneous Adipose Tissue by Abdominal MRI,” Obesity (Silver Spring) (2012) and Antizar-Ladislao, B, “Environmental Levels, Toxicity and Human Exposure to Tributyltin (TBT)-Contaminated Marine Environment. A Review,” Environ Int 34(2):292-308 (2008), each of which is hereby incorporated by reference in its entirety. As noted above, the cells were cultured in adipogenic medium containing rosiglitazone, a PPARγ ligand that promotes adipogenesis and obesity, and the noted putative obesogens.
qPCR analysis of the mRNA levels of Thy1 and the adipogenic marker FABP4 was conducted. […] The same samples as in FIG. 4A were used to measure Thy1 mRNA levels by qPCR. […] Thy1 and FABP4 levels were normalized to TBP mRNA levels (control gene).
hMSCs were also treated with vehicle (DMSO), 20 uM TBBPA, or 10 uM rosiglitazone for 72 hrs, harvested and stained with a fluorescent anti-Thy1 antibody for analysis of Thy1 by flow cytometry.

Thy1 [3] = test: Thy1 expression in mouse MSCs cultured with obesogens (flow cytometry, western blotting); format: cell-based; details: 96 hrs; for Thy1, western blotting: concentrations in figure
Procedure: Mouse MSCs were cultured with obesogens for 96 hrs, harvested, and analyzed for Thy1 expression by flow cytometry or western blotting.

Erk1/2 = test: Western blot for phospho-Erk1/2 in 3T3-L1 cells; format: cell-based, mouse; details: Thy1 expressed in 3T3-L1 cells
Procedure: 3T3-L1 cells infected with a control or Thy1-expressing lentivirus (LV) were treated with 10 nM insulin-like growth factor (IGF)-1 for 0, 5, or 10 minutes. Cells were treated as described, then whole cell lysates were harvested and analyzed by western blot for phospho-Erk1/2 and GAPDH expression (FIG. 18A). Western blot images were analyzed by densitometry and phospho-Erk1/2 levels were normalized to GAPDH to adjust for total protein variations (FIG. 18B).
PPARγ phosphorylation at serine 82 (S82) inhibits ligand binding and severely reduces its ability to promote adipogenesis. […] To investigate if Thy1 regulates the Erk pathway, Thy1 was expressed in 3T3-L1 cells and the activity of Erk1/2 (which corresponds to phospho-Erk) was monitored by western blotting (see FIGS. 18A and 18B). […]

PPARγ = test: Western blot for PPARγ protein in 3T3-L1 cells; format: cell-based, mouse; details: expression of Thy1 in 3T3-L1 preadipocyte fibroblasts
From the text: Orbital fibroblasts from two individual human donors were separated into Thy1^− and Thy1+ subsets. Cells were harvested and analyzed by western blotting for PPARγ and actin (loading control). […] In addition, 3T3-L1 cells were transduced with control or human Thy1− encoding lentiviral (Lv) particles.
To test how Thy1 affects PPARγ, it was first considered whether Thy1 would down-regulate the expression of PPARγ protein. However, two different strains of human TED orbital fibroblasts, sorted into Thy1+ or Thy1^− subsets, expressed similar levels of PPARγ (FIG. 15A). […] Thus, other ways that Thy1 could influence the function of PPARγ were considered, as described below.

Fyn = test: Western blot for phospho-STAT5 (Fyn mediated phosphorylation); format: cell-based, human; details: Thy1 expression
human stem cells = test: Adipogenesis of human stem cells / preadipocytes given a proadipogenic cocktail; format: cell-based
From the text: Thy1 (or Thy-1, also termed CD90) is an N-glycosylated, glycophosphatidylinositol (GPI)-anchored membrane protein that was originally identified as a surface marker on mouse T cells and thymocytes. Thy1 is a surface marker of unknown function that is expressed on some stem cells and some fibroblasts. While Thy1 was discovered more than 35 years ago, its molecular function remains a mystery. The inventors of the present application have discovered that Thy1 is more than a surface marker; rather, it can control the fate of cells by preventing adipogenesis. […] Similarly, deliberate genetic over-expression of Thy1 has the same effect, preventing cells from becoming adipocytes.

[4] = Diet induced obesity in mice on a high fat diet, soluble Thy1 injected; format: in vivo, mouse; details: high fat diet (60% kcals from fat), minimum of 8 weeks, 0.2 or 0.4 mg/kg intravenous or subcutaneous
From the text: Milligram quantities of soluble Thy1 will be injected into mice receiving a high fat (60% kcals from fat) diet.
Mice fed a high fat diet and treated as in Table 2 will be weighed weekly for the duration of the experiment (minimum of 8 weeks). Following the study, mice will be sacked for fat depot quantification, histologic analysis and fat tissue will be analyzed by western blot for the adipogenic markers FABP4, C/EBPα, Fyn, and phospho-Fyn. Serum samples will also be acquired for analysis of Thy1, adiponectin and glucose levels.

[5] = induced to differentiate into adipocytes
[6] = human and mouse mesenchymal stem cells

CN(C)S(=O)(=O)c1ccc2c(c1)/C(=C/c1cc3c([nH]1)CCCC3)C(=O)N2 [SU6656]
adipogenic effect of Thy1 siRNA (FABP4 mRNA, lipid accumulation) ([1]; Thy1 siRNA followed by adipocyte induction): ablated
FABP4 protein expression, % of control, western blot [1, 5]: 30%
lipid accumulation, % of control [1, 5]: 55%

CC(C)(c1cc(Br)c(O)c(Br)c1)c1cc(Br)c(O)c(Br)c1 [TBBPA, tetrabromobisphenol-A]
Thy1 expression (Thy1 [2]; MSCs treated with obesogens): reduced
surface expression of Thy1, flow cytometry (Thy1 [2]; hMSCs, 20 uM, 72 hrs, vs vehicle (DMSO)): decreased
Thy1 expression (Thy1 [2]; [6]): dramatically reduced
Thy1 surface expression, Mean Fluorescent Intensity (Thy1 [3]; 5 μM): dramatic reduction
Thy1, western blotting (Thy1 [3]): reduction

CCC[CH2][Sn]([CH2]CCC)[CH2]CCC [TBT, tributlytin]
Thy1 expression (Thy1 [2]; MSCs treated with obesogens): reduced
Thy1 expression (Thy1 [2]; [6]): dramatically reduced
Thy1, western blotting (Thy1 [3]): reduction

Thy1: N-glycosylated, GPI-anchored membrane protein; human Thy1 SEQ ID NO:1; soluble form lacks the GPI anchor
increase of Erk1/2 phosphorylation compared to control 3T3-L1 cells (Erk1/2): greater than 3 fold
PPARγ protein levels (PPARγ): did not alter
phospho-STAT5 levels, western blotting (Fyn): reduces
human stem cell adipogenesis (human stem cells): blunts
becoming fat cells (human stem cells; human and mouse preadipocytes and primary human stem cells, proadipogenic cocktail containing a PPARγ ligand): prevent
fat accumulation [4]: significantly less fat accumulation
weight gain [4]: significantly less weight
